Data: patent publication EP1737880B1, “17ALPHA-FLUORO-17BETA-HYDROXI[…], A METHOD FOR PRODUCTION THEREOF AND PHARMACEUTICAL COMPOSITIONS COMPRISING SAID COMPOUNDS” (Bayer Schering Pharma Aktiengesellschaft, priority 2004, dated 2005)

Tests used:
[1] = target: T1, Progesteronrezeptor (Oryctolagus cuniculus, UniProt P06186); experiment: Binding to the progesterone receptor (relative binding affinity, tracer 3H-ORG 2058); details: Uterus-Cytosol, Kaninchen, geprimt, 0-4°C, 18 h, Referenzsubstanz Progesteron = 100%
T1 construct: Uterus-Cytosol, Kaninchen, geprimt; from tissue; host or cells: uterus cytosol of primed rabbits
T1 sequence (P06186 1-930): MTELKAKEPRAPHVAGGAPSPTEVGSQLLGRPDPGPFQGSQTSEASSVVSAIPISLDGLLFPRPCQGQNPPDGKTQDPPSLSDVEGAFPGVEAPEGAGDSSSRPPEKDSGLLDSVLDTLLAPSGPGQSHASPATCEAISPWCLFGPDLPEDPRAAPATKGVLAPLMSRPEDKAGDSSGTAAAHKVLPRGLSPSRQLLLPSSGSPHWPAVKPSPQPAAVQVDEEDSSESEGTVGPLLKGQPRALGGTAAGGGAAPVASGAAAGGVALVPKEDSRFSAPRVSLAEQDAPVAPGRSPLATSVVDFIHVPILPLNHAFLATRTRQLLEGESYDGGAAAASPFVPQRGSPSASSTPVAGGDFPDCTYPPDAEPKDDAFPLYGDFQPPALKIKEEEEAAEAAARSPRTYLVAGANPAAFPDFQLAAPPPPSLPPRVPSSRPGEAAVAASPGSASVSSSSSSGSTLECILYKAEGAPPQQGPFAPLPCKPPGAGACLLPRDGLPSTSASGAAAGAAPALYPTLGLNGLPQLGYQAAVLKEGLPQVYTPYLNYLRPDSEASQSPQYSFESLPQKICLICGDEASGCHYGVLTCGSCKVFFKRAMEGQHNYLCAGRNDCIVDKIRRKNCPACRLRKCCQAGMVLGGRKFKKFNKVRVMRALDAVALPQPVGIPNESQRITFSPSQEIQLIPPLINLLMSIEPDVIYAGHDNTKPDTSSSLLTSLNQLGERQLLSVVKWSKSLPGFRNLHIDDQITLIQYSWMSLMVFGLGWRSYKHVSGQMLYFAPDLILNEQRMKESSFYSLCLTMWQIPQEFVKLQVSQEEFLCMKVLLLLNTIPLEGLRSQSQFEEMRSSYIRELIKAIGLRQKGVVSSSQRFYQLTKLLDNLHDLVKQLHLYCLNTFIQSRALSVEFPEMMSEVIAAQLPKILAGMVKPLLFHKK
Excerpt: Bindung der Verbindung I an den Progesteronrezeptor

[2] = tested on: Maus; experiment: Gestagenic activity in the pregnancy maintenance test, mouse; assay type: in vivo
[3] = target: T2, 5α-Reduktase-Typ2 (Homo sapiens, UniProt P31213); experiment: 5α-reductase type 2 activity in genital skin homogenates; assay type: biochemical; details: Genitalhaut-Homogenate, optimised conditions, pH 5.5
T2 construct: In Genitalhaut-Homogenaten unter optimierten Bedingungen bei pH 5.5; from tissue; host or cells: genital skin homogenate
T2 sequence (P31213 1-254): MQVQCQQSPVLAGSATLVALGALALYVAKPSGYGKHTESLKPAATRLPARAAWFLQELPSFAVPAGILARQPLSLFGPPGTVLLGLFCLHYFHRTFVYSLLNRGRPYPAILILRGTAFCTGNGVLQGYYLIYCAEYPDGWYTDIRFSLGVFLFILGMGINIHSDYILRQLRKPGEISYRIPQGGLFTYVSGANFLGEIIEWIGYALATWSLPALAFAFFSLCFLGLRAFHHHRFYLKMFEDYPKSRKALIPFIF
Excerpt: Nachfolgend sind beispielhafte Daten zur Progesteronrezeptorbindung, 5α-Reduktase-Typ2-Aktivität in Genitalhaut-Homogenaten und in vivo- Daten am Beispiel von (E)-17α-Fluor-3-oxo-estr-4-en-17β-carbaldehyd oxim aufgeführt

[4] = target: T3, PR-B (Homo sapiens, UniProt P06401); experiment: PR-B antagonism and agonism; assay type: cell-based
T3 sequence (P06401 1-933): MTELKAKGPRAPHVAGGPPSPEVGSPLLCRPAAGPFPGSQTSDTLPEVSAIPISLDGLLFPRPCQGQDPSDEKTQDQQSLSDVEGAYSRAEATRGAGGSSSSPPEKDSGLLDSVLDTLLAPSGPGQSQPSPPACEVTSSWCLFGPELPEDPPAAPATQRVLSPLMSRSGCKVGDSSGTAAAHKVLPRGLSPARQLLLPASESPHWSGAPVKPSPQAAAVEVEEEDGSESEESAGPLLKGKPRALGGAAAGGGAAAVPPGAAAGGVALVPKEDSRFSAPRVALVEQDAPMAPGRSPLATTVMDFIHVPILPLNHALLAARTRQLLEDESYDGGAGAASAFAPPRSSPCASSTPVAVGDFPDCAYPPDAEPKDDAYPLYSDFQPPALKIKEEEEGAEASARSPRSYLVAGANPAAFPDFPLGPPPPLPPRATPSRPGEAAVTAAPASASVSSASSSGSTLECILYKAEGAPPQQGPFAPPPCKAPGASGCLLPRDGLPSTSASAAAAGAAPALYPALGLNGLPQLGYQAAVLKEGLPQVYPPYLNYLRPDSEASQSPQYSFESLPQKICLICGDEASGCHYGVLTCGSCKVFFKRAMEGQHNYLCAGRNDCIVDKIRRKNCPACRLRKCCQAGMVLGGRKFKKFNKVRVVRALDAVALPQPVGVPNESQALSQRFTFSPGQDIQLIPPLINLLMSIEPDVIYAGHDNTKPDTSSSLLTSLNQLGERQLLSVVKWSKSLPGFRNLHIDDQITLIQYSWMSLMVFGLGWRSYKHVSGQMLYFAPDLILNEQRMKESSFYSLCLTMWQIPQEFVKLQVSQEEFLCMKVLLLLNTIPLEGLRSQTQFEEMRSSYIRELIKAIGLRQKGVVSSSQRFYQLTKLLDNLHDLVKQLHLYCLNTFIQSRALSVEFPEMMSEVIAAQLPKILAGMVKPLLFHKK
Excerpt: PR-B Antagonismus und Agonismus

C[C@]12CC[C@H]3[C@@H](CCC4=CC(=O)CC[C@@H]43)[C@@H]1CC[C@]2(F)/C=N/O [Verbindung 7, (E)-17α-Fluor-3-oxo-estr-4-en-17β-carbaldehyd oxim]
Relative Bindungsaffinität RBA[%] [1]: 131 ± 9% | Rate der erhaltenen Graviditäten ([2]; Dosis 0,03 mg/Tier/Tag): 2/2 | Rate der erhaltenen Graviditäten ([2]; Dosis 0,3 mg/Tier/Tag): 3/3 | Rate der erhaltenen Graviditäten ([2]; Dosis 0,003 mg/Tier/Tag): 0/3 | IC50 [3]: 245 nM | EC50 ([4]; agonist mode, read-out: Agonismus IC50): 0.25 nM | IC50 ([4]; antagonist mode, read-out: Antagonismus IC50): 0.339 nM
